Tested on: MCF-7 breast cancer cells
Test: Microarray gene expression analysis (Agilent whole human genome 4 x 44K; compound vs DMSO, LIMMA log2 fold change)
Type: cell-based
Conditions: Apoptosis genes

With `Oc1cccc(-c2nc(N3CCOCC3)c3oc4ncccc4c3n2)c1` [PI-103] the “CTNNA1 log2FC” value (Gene 1495) was 0.421, the “CTNNB1 log2FC” value (Gene 1499) was 0.098 and the “CTSB log2FC” value (Gene 1508) was 0.047. For the same molecule, the “CTSH log2FC” value (Gene 1512) was -0.000676, the “CTSL log2FC” value (Gene 1514) was 0.329 and the “CX3CR1 log2FC” value (Gene 1524) was 0.187. The “CYLD log2FC” value (Gene 1540) was 0.377, the “DAB2 log2FC” value (Gene 1601) was -0.118 and the “DAD1 log2FC” value (Gene 1603) was -0.506. The “DAP log2FC” value (Gene 1611) was -0.163, the “DAPK1 log2FC” value (Gene 1612) was 0.477 and the “DAPK3 log2FC” value (Gene 1613) was -0.075. The “DBH log2FC” value (Gene 1621) was -0.084, the “DCC log2FC” value (Gene 1630) was -0.032 and the “GADD45A log2FC” value (Gene 1647) was -0.795. The “DDIT3 log2FC” value (Gene 1649) was 2.078, the “DDX3X log2FC” value (Gene 1654) was -1.134 and the “DDX5 log2FC” value (Gene 1655) was -1.225. For the same molecule, the “DFFA log2FC” value (Gene 1676) was -0.256, the “DFNA5 log2FC” value (Gene 1687) was -0.030 and the “DHCR24 log2FC” value (Gene 1718) was -0.730. The “DHODH log2FC” value (Gene 1723) was -0.198, the “NQO1 log2FC” value (Gene 1728) was -0.052 and the “DLX1 log2FC” value (Gene 1745) was -0.636. The “DNASE1 log2FC” value (Gene 1773) was 0.269, the “DNASE1L3 log2FC” value (Gene 1776) was -0.152 and the “DNASE2 log2FC” value (Gene 1777) was 0.667. The “DOCK1 log2FC” value (Gene 1793) was 0.305, the “DPEP1 log2FC” value (Gene 1800) was 0.033 and the “ATN1 log2FC” value (Gene 1822) was -0.173. For the same molecule, the “DSG1 log2FC” value (Gene 1828) was -0.439, the “DSG2 log2FC” value (Gene 1829) was 0.213 and the “DSG3 log2FC” value (Gene 1830) was -0.053. The “TSC22D3 log2FC” value (Gene 1831) was 0.499, the “DSP log2FC” value (Gene 1832) was 0.622 and the “DUSP1 log2FC” value (Gene 1843) was -0.801. For the same molecule, the “DUSP2 log2FC” value (Gene 1844) was -2.156, the “DUSP6 log2FC” value (Gene 1848) was -1.955 and the “E2F1 log2FC” value (Gene 1869) was -0.119. For the same molecule, the “E2F2 log2FC” value (Gene 1870) was -0.377, the “ECT2 log2FC” value (Gene 1894) was 0.836 and the “EDN1 log2FC” value (Gene 1906) was 0.126. For the same molecule, the “EDNRA log2FC” value (Gene 1909) was 0.064, the “EDNRB log2FC” value (Gene 1910) was -0.042 and the “EEF1A2 log2FC” value (Gene 1917) was 0.203. The “EFNA5 log2FC” value (Gene 1946) was -0.125, the “EGFR log2FC” value (Gene 1956) was 0.479 and the “EGR1 log2FC” value (Gene 1958) was -2.608. The “EGR2 log2FC” value (Gene 1959) was -0.367, the “EPHA2 log2FC” value (Gene 1969) was -1.806 and the “EIF5A log2FC” value (Gene 1984) was -0.261. The “ENDOG log2FC” value (Gene 2021) was -0.245, the “EP300 log2FC” value (Gene 2033) was -0.124 and the “EPHA7 log2FC” value (Gene 2045) was -0.025. For the same molecule, the “CLN8 log2FC” value (Gene 2055) was -0.236, the “EPO log2FC” value (Gene 2056) was -0.136 and the “ERBB3 log2FC” value (Gene 2065) was 0.809. The “ERBB4 log2FC” value (Gene 2066) was 0.106, the “ERCC2 log2FC” value (Gene 2068) was -0.269 and the “ERCC3 log2FC” value (Gene 2071) was -0.108. The “ERCC5 log2FC” value (Gene 2073) was 0.823, the “ERCC6 log2FC” value (Gene 2074) was 0.488 and the “ERN1 log2FC” value (Gene 2081) was -0.108. For the same molecule, the “ESR1 log2FC” value (Gene 2099) was -0.048, the “ESR2 log2FC” value (Gene 2100) was -0.062 and the “ETS1 log2FC” value (Gene 2113) was -0.820. The “EYA2 log2FC” value (Gene 2139) was -0.257, the “F2R log2FC” value (Gene 2149) was 0.377 and the “F3 log2FC” value (Gene 2152) was -0.177. The “PTK2B log2FC” value (Gene 2185) was 0.175, the “FCER1G log2FC” value (Gene 2207) was -0.541 and the “FGD1 log2FC” value (Gene 2245) was -0.255. For the same molecule, the “FGF4 log2FC” value (Gene 2249) was 0.019, the “FGF8 log2FC” value (Gene 2253) was -0.135 and the “FGF10 log2FC” value (Gene 2255) was -0.00185. The “FGFR1 log2FC” value (Gene 2260) was -0.374, the “FGFR3 log2FC” value (Gene 2261) was -0.164 and the “FGFR2 log2FC” value (Gene 2263) was 1.806. For the same molecule, the “FHIT log2FC” value (Gene 2272) was -0.336, the “FHL2 log2FC” value (Gene 2274) was -0.078 and the “FOXC1 log2FC” value (Gene 2296) was -0.767. For the same molecule, the “FOXC2 log2FC” value (Gene 2303) was -0.284, the “FLT3 log2FC” value (Gene 2322) was 0.120 and the “FLT4 log2FC” value (Gene 2324) was -0.157. The “FNTA log2FC” value (Gene 2339) was 0.629, the “FXN log2FC” value (Gene 2395) was -0.514 and the “FRZB log2FC” value (Gene 2487) was 0.040. The “FYN log2FC” value (Gene 2534) was 0.082, the “G6PD log2FC” value (Gene 2539) was -0.156 and the “GABRA5 log2FC” value (Gene 2558) was -0.0016. The “GABRB2 log2FC” value (Gene 2561) was -0.080, the “GABRB3 log2FC” value (Gene 2562) was -0.025 and the “GAS1 log2FC” value (Gene 2619) was 0.756. For the same molecule, the “GAS2 log2FC” value (Gene 2620) was 0.149, the “GATA1 log2FC” value (Gene 2623) was -0.018 and the “GATA3 log2FC” value (Gene 2625) was -0.114. The “GDNF log2FC” value (Gene 2668) was -0.175, the “B4GALT1 log2FC” value (Gene 2683) was 0.192 and the “GJA1 log2FC” value (Gene 2697) was -0.613. For the same molecule, the “GCLC log2FC” value (Gene 2729) was 0.812, the “GLI3 log2FC” value (Gene 2737) was 0.540 and the “GLO1 log2FC” value (Gene 2739) was -0.070. The “GML log2FC” value (Gene 2765) was -0.071, the “GNB1 log2FC” value (Gene 2782) was -0.085 and the “GNGT1 log2FC” value (Gene 2792) was -0.037. For the same molecule, the “GNRH1 log2FC” value (Gene 2796) was 0.097, the “SFN log2FC” value (Gene 2810) was -1.150 and the “GPLD1 log2FC” value (Gene 2822) was -0.157. The “CXCR3 log2FC” value (Gene 2833) was -0.474, the “GRK5 log2FC” value (Gene 2869) was -0.059 and the “MKNK2 log2FC” value (Gene 2872) was -0.826. The “GPX1 log2FC” value (Gene 2876) was 0.431, the “GRID2 log2FC” value (Gene 2895) was -0.052 and the “GRIK2 log2FC” value (Gene 2898) was 0.091. For the same molecule, the “GRIK5 log2FC” value (Gene 2901) was -0.101, the “GRIN1 log2FC” value (Gene 2902) was -0.444 and the “GRIN2A log2FC” value (Gene 2903) was -0.041. For the same molecule, the “NR3C1 log2FC” value (Gene 2908) was 1.042, the “GRM4 log2FC” value (Gene 2914) was -0.029 and the “PDIA3 log2FC” value (Gene 2923) was -0.085. The “GSK3A log2FC” value (Gene 2931) was -0.030, the “GSK3B log2FC” value (Gene 2932) was -0.455 and the “GSN log2FC” value (Gene 2934) was 0.174. For the same molecule, the “GSTP1 log2FC” value (Gene 2950) was 0.117, the “MSH6 log2FC” value (Gene 2956) was -0.075 and the “GZMH log2FC” value (Gene 2999) was -0.148. The “GZMA log2FC” value (Gene 3001) was -0.034, the “GZMB log2FC” value (Gene 3002) was -0.002 and the “GZMM log2FC” value (Gene 3004) was -0.381. For the same molecule, the “H1F0 log2FC” value (Gene 3005) was 0.834, the “HCK log2FC” value (Gene 3055) was -0.033 and the “HDAC1 log2FC” value (Gene 3065) was -0.547. The “HDAC2 log2FC” value (Gene 3066) was 0.060, the “HELLS log2FC” value (Gene 3070) was 0.140 and the “NCKAP1L log2FC” value (Gene 3071) was 0.054. The “HGF log2FC” value (Gene 3082) was -0.198, the “NRG1 log2FC” value (Gene 3084) was -1.164 and the “HIC1 log2FC” value (Gene 3090) was -0.122. The “HIF1A log2FC” value (Gene 3091) was 0.019, the “HIP1 log2FC” value (Gene 3092) was -0.167 and the “HINT1 log2FC” value (Gene 3094) was 0.210. The “HK2 log2FC” value (Gene 3099) was -1.428, the “HMGB1 log2FC” value (Gene 3146) was 0.343 and the “HMGB2 log2FC” value (Gene 3148) was 1.070. For the same molecule, the “HMGCR log2FC” value (Gene 3156) was 0.051, the “HMOX1 log2FC” value (Gene 3162) was 1.050 and the “NR4A1 log2FC” value (Gene 3164) was -0.484. The “HOXA5 log2FC” value (Gene 3202) was 0.436, the “HOXA13 log2FC” value (Gene 3209) was 0.042 and the “HRAS log2FC” value (Gene 3265) was -0.758. The “HRG log2FC” value (Gene 3273) was -0.015, the “PRMT2 log2FC” value (Gene 3275) was 0.289 and the “HSPA1A log2FC” value (Gene 3303) was -2.361. For the same molecule, the “HSPA5 log2FC” value (Gene 3309) was -0.793, the “HSPB1 log2FC” value (Gene 3315) was -0.135 and the “HSP90AA1 log2FC” value (Gene 3320) was 0.717. For the same molecule, the “HSP90AB1 log2FC” value (Gene 3326) was -0.430.
